According to US5358947A, “Angiotensin II receptor blocking 2,3-substituted pyrazolo[1,5-a]-1,3,5-triazin-4(3H)-ones” (American Cyanamid Company, priority 1993, dated 1994):
“And” between values parts separate entries of the source, which are not always exact repeats. Equal values may be shown once. Where a name gives a salt, the structure may show the parent alone.

Tested on: ANGIOTENSIN II (AII) VASOPRESSOR RESPONSE
Assay: AII Challenge: angiotensin II (AII) vasopressor response in conscious rats
Assay type: in vivo
Parameters: Response After AII / Change / Average Change: unit not given here
Conditions: 10 mg/kg i.v.; for Response After AII / Change / Control Before AII: individual rat; for Control Before AII: in mmHg (unit assumed); for % Inhibition / Average Change: n = 2
Summary of the method: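 Conscious male Okamoto-Aoki SHR (16-20 weeks, ~330 g), aorta/vena cava cannulated, challenged with AII 0.05 and 0.1 ug/kg i.v. before and at 30-300 min after compound dosed i.v., i.p. or orally. Systolic pressure rise expressed relative to each rat's predose response (100%).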

[1] = AII 0.05 mcg/kg, 30 min post dose
[2] = AII 0.05 mcg/kg, 30 min post dose, listed as Ex. 21, potassium salt
[3] = AII 0.05 mcg/kg, 60 min post dose, listed as Ex. 21, potassium salt
[4] = AII 0.05 mcg/kg, 90 min post dose, listed as Ex. 21, potassium salt
[5] = AII 0.05 mcg/kg, 120 min post dose, listed as Ex. 21, potassium salt
[6] = AII 0.05 mcg/kg, 180 min post dose, listed as Ex. 21, potassium salt
[7] = AII 0.05 mcg/kg, 240 min post dose, listed as Ex. 21, potassium salt
[8] = AII 0.05 mcg/kg, 300 min post dose, listed as Ex. 21, potassium salt
[9] = AII 0.1 mcg/kg, 30 min post dose
[10] = AII 0.1 mcg/kg, 30 min post dose, listed as Ex. 21, potassium salt
[11] = AII 0.1 mcg/kg, 60 min post dose, listed as Ex. 21, potassium salt
[12] = AII 0.1 mcg/kg, 90 min post dose, listed as Ex. 21, potassium salt
[13] = AII 0.1 mcg/kg, 120 min post dose, listed as Ex. 21, potassium salt
[14] = AII 0.1 mcg/kg, 180 min post dose, listed as Ex. 21, potassium salt
[15] = AII 0.1 mcg/kg, 240 min post dose, listed as Ex. 21, potassium salt
[16] = AII 0.1 mcg/kg, 300 min post dose, listed as Ex. 21, potassium salt

SMILES: CCCCc1nc2ccnn2c(=O)n1Cc1ccc(-c2ccccc2-c2nn[nH]n2)cc1 [Example 21, 2-Butyl-3-[[2'-(1H-tetrazol-5-yl)-[[1,1'-biphenyl]-4-yl]methyl]-pyrazolo[1,5-a]-1,3,5-triazin-4(3H)-one potassium salt]
- Response After AII [1]: 220
- Change [2]: 5 and 25
- Response After AII [2]: 225
- Control Before AII [2]: 215 and 200
- % Inhibition [1]: 65%
- Average Change [1]: 15
- Change [3]: 25 and 40
- Response After AII [3]: 235 and 250
- Control Before AII [3]: 210
- % Inhibition [3]: 24%
- Average Change [3]: 32.5
- Change [4]: 20
- Response After AII [4]: 230 and 260
- Control Before AII [4]: 210 and 240
- % Inhibition [4]: 53%
- Average Change [4]: 20
- Control Before AII (AII 0.05 mcg/kg, 120 min post dose): 220
- Change [5]: 20 and 30
- Response After AII [5]: 240 and 255
- Control Before AII [5]: 225
- % Inhibition [5]: 41%
- Average Change [5]: 25
- Change [6]: 21 and 45
- Response After AII [6]: 245 and 255
- Control Before AII [6]: 224 and 210
- % Inhibition [6]: 22%
- Average Change [6]: 33
- Change [7]: 25 and 35
- Response After AII [7]: 245 and 250
- Control Before AII [7]: 220 and 215
- % Inhibition [7]: 29%
- Average Change [7]: 30
- Change [8]: 31 and 40
- Response After AII [8]: 245 and 250
- Control Before AII [8]: 214 and 210
- % Inhibition [8]: 16%
- Average Change [8]: 35.5
- Response After AII [9]: 230
- Change [10]: 15 and 30
- Response After AII [10]: 225
- Control Before AII [10]: 210 and 200
- % Inhibition [9]: 58%
- Average Change [9]: 22.5
- Change [11]: 20 and 30
- Response After AII [11]: 245 and 255
- Control Before AII [11]: 225
- % Inhibition [11]: 53%
- Average Change [11]: 25
- Change [12]: 30 and 35
- Response After AII [12]: 245 and 260
- Control Before AII [12]: 215 and 225
- % Inhibition [12]: 39%
- Average Change [12]: 32.5
- Change [13]: 35 and 40
- Response After AII [13]: 255 and 265
- Control Before AII [13]: 220 and 225
- % Inhibition [13]: 30%
- Average Change [13]: 37.5
- Control Before AII (AII 0.1 mcg/kg, 180 min post dose): 240
- Change [14]: 30 and 35
- Response After AII [14]: 255 and 275
- Control Before AII [14]: 225
- % Inhibition [14]: 39%
- Average Change [14]: 32.5
- Change [15]: 40
- Response After AII [15]: 265 and 260
- Control Before AII [15]: 225 and 220
- % Inhibition [15]: 25%
- Average Change [15]: 40
- Change [16]: 50 and 60
- Response After AII [16]: 265 and 280
- Control Before AII [16]: 215 and 220
- % Inhibition [16]: -3%
- Average Change [16]: 55
